{"source": "patent US20230293478A1", "about": "“NITROGEN-CONTAINING ANALOGS OF SALINOMYCIN FOR USE IN ACUTE MYELOID LEUKEMIA” (Centre National de la Recherche Scientifique (CNRS), priority 2020, published 2023)", "key": {"KG1": {"test_system": "KG1", "assay": "IC50 determination (resazurin), KG1", "type": "cell-based", "conditions": "Homo sapiens, KG-1; KG1 cell line, 72 hours", "experimental": "(§1) Cells were seeded at a constant density prior to treatment in triplicate and treated with either ironomycin or DMSO over the indicated time period. Drug was refreshed at least every two days. Cells were stained with DAPI and live cell number was calculated using the BD FACSVerse (BD Biosciences). CellTitreGlo (Promega) assays were performed as per manufacturer's instructions in a 96 well plate format. To determine the half-maximal inhibitory concentration (IC50) for ironomycin, 24 h after seeding the cells at a constant density in triplicate, cells were treated with ironomcyin or DMSO for 72 hours. At day 3, after incubating the cells with 600 μM of resazurin for 6 h, fluorescence was measured at λex=530 nm and λem=590 nm, using a Microplate Reader (EnSpire, Perkin Elmer). Relative fluorescence units were converted to per cent of inhibition relative to controls on the same plate, and the data were fitted against a four-parameter logistic model to determine the IC50."}, "KASUMI-1": {"test_system": "KASUMI-1", "assay": "IC50 determination (resazurin), KASUMI-1", "type": "cell-based", "conditions": "Homo sapiens; KASUMI-1 cell line, 72 hours", "experimental": "as §1"}, "HL-60": {"test_system": "HL-60", "assay": "IC50 determination (resazurin), HL-60", "type": "cell-based", "conditions": "Homo sapiens; HL-60 cell line, 72 hours", "experimental": "as §1"}, "NOMO-1": {"test_system": "NOMO-1", "assay": "IC50 determination (resazurin), NOMO-1", "type": "cell-based", "conditions": "Homo sapiens; NOMO-1 cell line, 72 hours", "experimental": "as §1"}, "SKM-1": {"test_system": "SKM-1", "assay": "IC50 determination (resazurin), SKM-1", "type": "cell-based", "conditions": "Homo sapiens; SKM-1 cell line, 72 hours", "experimental": "as §1"}, "NB4": {"test_system": "NB4", "assay": "IC50 determination (resazurin), NB4", "type": "cell-based", "conditions": "Homo sapiens, NB-4; NB4 cell line, 72 hours", "experimental": "as §1"}, "MV4-11": {"test_system": "MV4-11", "assay": "IC50 determination (resazurin), MV4-11", "type": "cell-based", "conditions": "Homo sapiens; MV4-11 cell line, 72 hours", "experimental": "as §1"}, "MOLM-13": {"test_system": "MOLM-13", "assay": "IC50 determination (resazurin), MOLM-13", "type": "cell-based", "conditions": "Homo sapiens; MOLM-13 cell line, 72 hours", "experimental": "as §1"}, "OCI-AML3": {"test_system": "OCI-AML3", "assay": "IC50 determination (resazurin), OCI-AML3", "type": "cell-based", "conditions": "Homo sapiens, OCI-AML-3; OCI-AML3 cell line, 72 hours", "experimental": "as §1"}, "HEL 92.1.7": {"test_system": "HEL 92.1.7", "assay": "IC50 determination (resazurin), HEL 92.1.7", "type": "cell-based", "conditions": "Homo sapiens; HEL 92.1.7 cell line, 72 hours", "experimental": "as §1"}, "K 562": {"test_system": "K 562", "assay": "IC50 determination (resazurin), K 562", "type": "cell-based", "conditions": "Homo sapiens, K562; K 562 cell line, 72 hours", "experimental": "as §1"}, "human AML cell lines": {"test_system": "human AML cell lines", "assay": "IC50 determination across various human AML cell lines", "type": "cell-based", "conditions": "range over various human AML cell lines, 72 hours; read-out: Half maximal inhibitory concentration (IC50)", "experimental": "as §1"}, "AML cell lines": {"test_system": "AML cell lines", "assay": "Cell proliferation and PI cell death in AML cell lines", "type": "cell-based, human", "conditions": "all AML cell lines tested", "experimental": "as §1\n(§2) Cell death, cells were washed once with PBS and assessed using propidium iodide PI from staining (Sigma) according to manufacturer's instructions. Lipid peroxidation was assessed with BODIPYC11 staining (Thermo Fisher D3861). Cell were washed once with PBS and stained for 30 minutes in the dark at room temperature in 1 ml of 7.5 μM PBS solution, washed once and assessed according to manufacturer's instructions. […]"}, "[1]": {"test_system": "MV4,11 cells transplanted into NSG mice", "assay": "AML xenograft model, survival", "type": "in vivo, mouse", "conditions": "5 days/week for 4 weeks, single agent", "experimental": "Ironomycin was dissolved in PBS+2.5% DMSO. […] Animals were euthanized at the completion of treatment."}, "[2]": {"test_system": "cleaved PARP1 and cleaved caspase 3 in MOLM-13 cell line", "assay": "Immunoblot of cleaved PARP1 and cleaved caspase 3", "type": "cell-based, human", "conditions": "500 nM, 24 h", "experimental": "Cells were lysed in 20 mM HEPES pIH7.9, 0.5 mM EDTA, 2% SDS plus 1× protease inhibitor cocktail (Roche) by brief sonication. Lysates were heated to 95° C. in SDS sample buffer with 50 mM DTT for 5 min, separated by SDS-PAGE and transferred to PVDF membrane (Millipore). Membranes were blocked in 5% milk or BSA in TBS +0.1% Tween-20, probed with the indicated antibodies, and reactive bands visualised using ECL Prime (GE)."}, "WT MV4; 11 cell line [3]": {"test_system": "WT MV4; 11 cell line", "assay": "Cell death analysis (PI, Cell titer glow) in WT MV4;11", "type": "cell-based, human", "conditions": "24 h", "experimental": "as §1, §2"}, "[4]": {"test_system": "lysosomal iron in MOLM13 cells", "assay": "Lysosomal iron, RhoNoxM probe flow cytometry", "type": "cell-based, human", "experimental": "Ironomycin (AM5) and AM23 were synthesized as previously described (Mai et al., 2017), venetoclax (ABT-199), biranapant and IDN-6556 are commercially available. Metformin and phenformin, were purchased from sigma (PHR1084 and PHR1573) and reconstituted freshly in culture medium. Turn-off Fe2+ probe (Petrat et al., 2002) was synthesized as previously reported (Muller et al., 2018), dose was 1 μM for 1 h for flow cytometry experiments. RhonoxM (Hirayarna et al., 2013) was synthesized as previously reported (Mai et al., 2017), dose was 1 μM, 1 h for flow cytometry experiments. Liproxstatin-1 (sigma SML1414, DMSO), ferrostatin (sigma SML0583, DMSO), RSL3 (sigma SML2234, DMSO), 6 aminonicotidamide (sigma A68203, DMSO), Z-VADfmk (R&D system FMK001, DMSO)."}, "[5]": {"test_system": "mitochondrial iron in MOLM13 cells", "assay": "ICP-MS iron on isolated mitochondria", "type": "cell-based, human", "conditions": "ICP-MS on isolated mitochondria after treatment"}, "[6]": {"test_system": "mitochondrial ROS in MV4; 11 and OCI-AML3", "assay": "Mitochondrial ROS, Mitosox Red flow cytometry", "type": "cell-based, human", "conditions": "500 nM, 24 hours"}, "[7]": {"test_system": "lipid ROS in OCIAML3 and MOLM-13 cells", "assay": "Lipid peroxidation, C11 BODIPY 581/591 staining", "type": "cell-based, human", "conditions": "500 nM, 48 hours", "experimental": "(§3) Cell death, cells were washed once with PBS and assessed using propidium iodide PI from staining (Sigma) according to manufacturer's instructions. Lipid peroxidation was assessed with BODIPYC11 staining (Thermo Fisher D3861). Cell were washed once with PBS and stained for 30 minutes in the dark at room temperature in 1 ml of 7.5 μM PBS solution, washed once and assessed according to manufacturer's instructions. Mitochondrial ROS were assessed with mitosox red probe (thermofisher M36008) according to manufacturer's instructions. All flow cytometry analyses were performed on a LSR Fortessa X-20 flow cytometer (BD Biosciences) and all data analysed with FlowJo. Cell sorting was performed on a FACSAria Fusion 5 (BD Biosciences)."}, "[8]": {"test_system": "mitochondria in MV4; 11 cells", "assay": "Transmission electron microscopy of mitochondria", "type": "cell-based, human", "conditions": "500 nM, 16 h", "experimental": "Cells were fixed in 2% GA in 0.1M sodium cacodylate buffer for 2 hours at room temperature, rinsed with 0.1M na-cacodylaatbuffer (5×10 min), and posffixation was done with 1% Osmium tetroxide and 1.5% Potassium ferricyanide for 2 hours at 4C in the dark. After rinsing in milliQ water, cells were stained with 0.5% Uranylacetate in MQ (±PH 4) for 1 h at 4° C. Cells were scraped and embedded in low melting agarose before serial dehydration in ethanol followed by propylene oxide and embedding into epon-araldyte resin. After polymerisation of the resin at 65 C for 48 hours, ultrathin sections were cut on a Leica UCT ultramicrotome and sections stained with uranyl acetate and lead citrate. Sections were examined on a Jeol JEM-1400Plus transmission electron microscope equipped with a Matataki flash camera at 80 keV."}, "WT MV4; 11 cell line [9]": {"test_system": "WT MV4; 11 cell line", "assay": "PI cell death in medium with different glucose concentration", "type": "cell-based, human", "conditions": "500 nM, 48 h", "experimental": "as §3"}, "[10]": {"conditions": "Mai et al., 2017; cited from earlier work"}, "[11]": {"test_system": "primary AML samples derived from patients with venetoclax resistant or refractory disease", "assay": "Primary patient synergy analysis (PI viability, Bliss)", "type": "cell-based, human", "conditions": "monotherapy, 1 μM, 5 days, five primary samples", "experimental": "Samples were collected from patients with AML treated at the Alfred Hospital after obtaining informed consent. Studies were conducted in accordance with the approved protocols through the Human Research Ethics Committee of the Alfred Hospital and the Declaration of Helsinki for all subjects. Primary AML cells were cultured in StemSpan SFEM (Stemcell Technologies) supplemented with 10 ng/mL IL-3, 10 ng/mL IL-6, 50 ng/mL SCF and 50 ng/mL FLT3L (all Peprotech) and 35 nM UM171 and 500 nM stemreginin (StemCell Technologies). For primary patient synergy analyses, 50,000 AML cells were plated in each well of a 96-well plate, and cultured with escalating doses of ironomycin and venetoclax for 5 days in medium conditions as described above. After 5 days, viability was assessed via propidium iodide staining and flow cytometry (BD FACSCanto). Synergy was determined using the Bliss synergy model."}}}
{"molecule": "C#CCN[C@@H]1C=C[C@]2(O[C@H]([C@@H](CC)C(=O)[C@@H](C)[C@@H](O)[C@H](C)[C@@H]3O[C@@H]([C@@H](CC)C(=O)O)CC[C@@H]3C)[C@@H](C)C[C@H]2C)O[C@@]12CC[C@@](C)([C@H]1CC[C@](O)(CC)[C@H](C)O1)O2", "note": "[Ironomycin]", "values": [{"measurement": "IC50", "setting": "KG1", "value": 14, "unit": "nM"}, {"measurement": "IC50", "setting": "KASUMI-1", "value": 16, "unit": "nM"}, {"measurement": "IC50", "setting": "HL-60", "value": 26, "unit": "nM"}, {"measurement": "IC50", "setting": "NOMO-1", "value": 30, "unit": "nM"}, {"measurement": "IC50", "setting": "SKM-1", "value": 45, "unit": "nM"}, {"measurement": "IC50", "setting": "NB4", "value": 47, "unit": "nM"}, {"measurement": "IC50", "setting": "MV4-11", "value": 61, "unit": "nM"}, {"measurement": "IC50", "setting": "MOLM-13", "value": 70, "unit": "nM"}, {"measurement": "IC50", "setting": "OCI-AML3", "value": 118, "unit": "nM"}, {"measurement": "IC50", "setting": "HEL 92.1.7", "value": 260, "unit": "nM"}, {"measurement": "IC50", "setting": "K 562", "value": 410, "unit": "nM"}, {"measurement": "IC50", "setting": "human AML cell lines", "value": "14 to 410", "unit": "nM"}, {"measurement": "cell death (PI staining)", "setting": "AML cell lines", "value": "rapid cell death"}, {"measurement": "proliferation", "setting": "AML cell lines", "value": "proliferation block in a dose dependent manner"}, {"measurement": "survival", "setting": "[1]; ironomycin 1 mg/kg IP", "value": "did not result in any survival advantage"}, {"measurement": "cleavage of caspase 3 and PARP1", "setting": "[2]", "value": "did not cleaved caspase 3 nor PARP1"}, {"measurement": "cell death", "setting": "WT MV4; 11 cell line [3]", "value": "induce cell death"}, {"measurement": "lysosomal iron", "setting": "[4]", "value": "increased lysosomal iron"}, {"measurement": "total iron in mitochondria", "setting": "[5]", "value": "decrease in total iron into the mitochondria"}, {"measurement": "mitochondrial ROS", "setting": "[6]", "value": "increased mitochondrial ROS"}, {"measurement": "lipid peroxidation", "setting": "[7]", "value": "induced a lipid peroxidation"}, {"measurement": "cristae structure", "setting": "[8]", "value": "disturbed the cristae structure"}, {"measurement": "efficacy in killing AML cells", "setting": "WT MV4; 11 cell line [9]; increased glucose concentration", "value": "higher efficacy"}, {"measurement": "efficacy in killing AML cells", "setting": "WT MV4; 11 cell line [9]; low glucose conditions", "value": "less efficient"}, {"measurement": "potency relative to Salinomycin", "setting": "[10]", "value": "ten times more potent"}]}
{"molecule": "Venetoclax [reference compound]", "values": [{"measurement": "impaired cell viability", "setting": "[11]", "value": "6-40%"}, {"measurement": "survival", "setting": "[1]; venetoclax 75 mg/kg oral gavage", "value": "did not result in any survival advantage"}, {"measurement": "cell death", "setting": "WT MV4; 11 cell line [3]", "value": "induce cell death"}]}
